Source: article PMC5920526 (ACS catalysis, 2017)

Tests used:
[1] = system: SpNanC; experiment: Kinetics studies of SpNanC; assay type: biochemical, Streptococcus pneumoniae; conditions: substance as substrate of SpNanC
[2] = system: SpNanC; experiment: Substrate specificity of SpNanC with pNP-tagged α2–3-linked sialosides; assay type: biochemical, Streptococcus pneumoniae; conditions: sialoside as substrate of SpNanC
[3] = target: PmST1 (Pasteurella multocida, UniProt Q15KI8); assay type: biochemical; conditions: 0.1 mM inhibitor
[4] = target: CpNanH (Clostridium perfringens, UniProt P10481); assay type: biochemical
[5] = target: BiNanH2 (Bifidobacterium longum subsp. infantis, UniProt A0ACD7UU12); experiment: Sialidase inhibition, Neu5Acα2–3GalβpNP as substrate; assay type: biochemical; conditions: for inhibitory activity against BiNanH2 (in words): 0.1 mM inhibitor; for IC50: read-out: IC50 against BiNanH2, Neu5Acα2–3GalβpNP as substrate
[6] = target: AuSialidase (Paenarthrobacter ureafaciens, UniProt Q5W7Q2); experiment: as above; assay type: biochemical, Arthrobacter ureafaciens; conditions: for inhibitory activity against AuSialidase (in words): 0.1 mM inhibitor
[7] = target: VcSialidase (Vibrio cholerae serotype O1, UniProt P0C6E9); experiment: biochemical
[8] = target: SpNanB (Streptococcus pneumoniae serotype 4, UniProt Q54727); experiment: Sialidase inhibition, Neu5Acα2–3GalβpNP as substrate; assay type: biochemical; conditions: 0.1 mM inhibitor
[9] = system: SpNanC; experiment: as above; assay type: biochemical, Streptococcus pneumoniae; conditions: 0.1 mM inhibitor
[10] = target: SpNanA (Streptococcus pneumoniae, UniProt P62575); experiment: biochemical; conditions: for inhibitory activity against SpNanA (in words): 0.1 mM inhibitor; for IC50: read-out: IC50 against SpNanA, Neu5Acα2–3GalβpNP as substrate
[11] = system: CpNanI; assay type: biochemical, Clostridium perfringens; conditions: 0.1 mM inhibitor
[12] = target: human cytosolic sialidase hNEU2 (Homo sapiens, UniProt Q9Y3R4); experiment: Sialidase inhibition, Neu5Acα2–3GalβpNP as substrate; assay type: biochemical; conditions: 0.1 mM inhibitor
[13] = system: human NEU1; conditions: cited from earlier work
[14] = system: viral sialidases; conditions: cited from earlier work
[15] = system: recombinant SpNanC; conditions: substance as substrate of previously reported recombinant SpNanC; cited from earlier work

SpNanA, sequence (P62575 54-1035): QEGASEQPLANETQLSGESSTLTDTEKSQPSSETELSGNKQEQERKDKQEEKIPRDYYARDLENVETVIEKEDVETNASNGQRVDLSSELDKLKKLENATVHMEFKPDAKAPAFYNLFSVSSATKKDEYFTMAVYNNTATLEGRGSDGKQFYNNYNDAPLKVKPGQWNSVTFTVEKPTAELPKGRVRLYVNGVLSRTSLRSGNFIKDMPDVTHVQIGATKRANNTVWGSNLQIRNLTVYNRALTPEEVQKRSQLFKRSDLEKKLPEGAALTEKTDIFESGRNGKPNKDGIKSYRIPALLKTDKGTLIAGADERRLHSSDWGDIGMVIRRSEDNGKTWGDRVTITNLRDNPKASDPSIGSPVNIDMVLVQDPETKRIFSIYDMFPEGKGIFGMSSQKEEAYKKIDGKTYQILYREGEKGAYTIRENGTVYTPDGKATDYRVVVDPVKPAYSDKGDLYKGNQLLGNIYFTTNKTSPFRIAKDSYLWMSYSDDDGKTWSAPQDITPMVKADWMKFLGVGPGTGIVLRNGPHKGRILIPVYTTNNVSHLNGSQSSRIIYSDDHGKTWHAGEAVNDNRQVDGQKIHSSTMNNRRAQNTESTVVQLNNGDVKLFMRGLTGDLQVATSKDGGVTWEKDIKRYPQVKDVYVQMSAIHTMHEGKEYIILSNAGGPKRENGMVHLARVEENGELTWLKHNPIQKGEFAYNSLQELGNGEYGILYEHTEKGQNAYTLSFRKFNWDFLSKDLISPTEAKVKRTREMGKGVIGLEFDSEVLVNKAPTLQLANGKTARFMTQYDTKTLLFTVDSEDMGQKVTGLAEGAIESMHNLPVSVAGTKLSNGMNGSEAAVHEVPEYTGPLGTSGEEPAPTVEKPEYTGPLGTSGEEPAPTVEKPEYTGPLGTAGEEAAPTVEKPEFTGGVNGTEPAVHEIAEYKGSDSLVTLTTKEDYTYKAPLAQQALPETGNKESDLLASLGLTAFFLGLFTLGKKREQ
VcSialidase, sequence (P0C6E9 25-781): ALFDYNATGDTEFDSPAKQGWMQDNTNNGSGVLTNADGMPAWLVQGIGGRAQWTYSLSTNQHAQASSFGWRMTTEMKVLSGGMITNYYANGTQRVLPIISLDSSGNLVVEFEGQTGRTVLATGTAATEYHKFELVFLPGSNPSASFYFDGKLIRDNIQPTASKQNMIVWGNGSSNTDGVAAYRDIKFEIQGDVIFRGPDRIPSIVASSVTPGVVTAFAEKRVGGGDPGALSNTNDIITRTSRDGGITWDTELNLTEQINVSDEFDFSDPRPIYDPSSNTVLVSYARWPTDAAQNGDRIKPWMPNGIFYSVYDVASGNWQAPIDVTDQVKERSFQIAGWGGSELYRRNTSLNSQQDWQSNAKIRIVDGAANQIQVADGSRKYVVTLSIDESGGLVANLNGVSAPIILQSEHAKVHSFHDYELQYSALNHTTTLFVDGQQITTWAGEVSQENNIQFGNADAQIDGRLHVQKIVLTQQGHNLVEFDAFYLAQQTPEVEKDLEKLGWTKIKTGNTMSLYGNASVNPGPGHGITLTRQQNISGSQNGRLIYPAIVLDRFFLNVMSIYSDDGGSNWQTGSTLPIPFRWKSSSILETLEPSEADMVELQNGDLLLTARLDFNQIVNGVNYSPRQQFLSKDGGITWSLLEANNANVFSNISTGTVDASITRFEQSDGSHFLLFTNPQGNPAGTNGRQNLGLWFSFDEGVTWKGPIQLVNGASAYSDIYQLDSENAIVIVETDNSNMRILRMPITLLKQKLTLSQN
CpNanH, sequence (P10481 whole entry, looked up): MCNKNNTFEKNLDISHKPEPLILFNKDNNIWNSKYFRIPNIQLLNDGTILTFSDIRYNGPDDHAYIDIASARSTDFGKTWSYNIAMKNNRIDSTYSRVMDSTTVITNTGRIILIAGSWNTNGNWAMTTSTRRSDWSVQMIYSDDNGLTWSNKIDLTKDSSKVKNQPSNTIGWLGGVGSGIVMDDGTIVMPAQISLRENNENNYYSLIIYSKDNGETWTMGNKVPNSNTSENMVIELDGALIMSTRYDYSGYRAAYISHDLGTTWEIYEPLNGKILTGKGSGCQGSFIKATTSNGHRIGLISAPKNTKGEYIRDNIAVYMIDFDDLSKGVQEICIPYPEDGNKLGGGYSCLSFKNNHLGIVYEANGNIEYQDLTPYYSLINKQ
SpNanB, sequence (Q54727 30-697): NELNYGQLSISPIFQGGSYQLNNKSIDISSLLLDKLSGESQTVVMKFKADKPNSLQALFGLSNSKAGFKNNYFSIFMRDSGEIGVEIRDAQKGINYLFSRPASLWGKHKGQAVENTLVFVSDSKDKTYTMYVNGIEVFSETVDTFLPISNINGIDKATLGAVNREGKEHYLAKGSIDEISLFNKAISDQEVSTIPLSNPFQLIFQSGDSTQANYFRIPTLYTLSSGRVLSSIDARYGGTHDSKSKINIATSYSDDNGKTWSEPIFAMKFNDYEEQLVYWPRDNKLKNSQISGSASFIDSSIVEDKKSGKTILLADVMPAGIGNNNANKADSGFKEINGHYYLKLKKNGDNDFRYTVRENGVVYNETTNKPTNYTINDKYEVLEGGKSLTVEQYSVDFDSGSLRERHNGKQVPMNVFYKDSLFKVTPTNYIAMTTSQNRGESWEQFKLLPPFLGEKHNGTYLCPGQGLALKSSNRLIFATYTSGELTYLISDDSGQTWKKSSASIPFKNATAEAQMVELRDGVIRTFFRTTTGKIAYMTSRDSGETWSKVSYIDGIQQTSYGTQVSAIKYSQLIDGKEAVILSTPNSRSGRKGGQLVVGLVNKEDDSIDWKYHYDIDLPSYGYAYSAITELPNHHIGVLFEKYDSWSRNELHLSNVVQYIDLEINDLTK
human cytosolic sialidase hNEU2, sequence (Q9Y3R4 whole entry): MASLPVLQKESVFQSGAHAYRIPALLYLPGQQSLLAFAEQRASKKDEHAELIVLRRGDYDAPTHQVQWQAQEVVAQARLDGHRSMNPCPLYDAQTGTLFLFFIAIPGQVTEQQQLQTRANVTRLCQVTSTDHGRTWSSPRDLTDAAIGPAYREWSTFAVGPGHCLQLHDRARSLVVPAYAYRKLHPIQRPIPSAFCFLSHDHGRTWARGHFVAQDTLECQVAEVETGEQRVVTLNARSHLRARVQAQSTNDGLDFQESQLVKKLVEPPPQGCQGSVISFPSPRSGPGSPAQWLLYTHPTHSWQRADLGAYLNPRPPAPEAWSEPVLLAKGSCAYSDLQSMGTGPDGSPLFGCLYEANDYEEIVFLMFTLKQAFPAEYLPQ

Compound: CC(=O)N[C@H]1[C@H]([C@H](O)[C@H](O)CO)OC(O[C@H]2[C@@H](O)[C@@H](CO)O[C@@H](Oc3ccc([N+](=O)[O-])cc3)[C@@H]2O)(C(=O)O)C[C@@H]1O (some centres unmarked) [Neu5Acα2–3GalβpNP]
- Km [1]: 2.7 ± 0.5 mM
- kcat [1]: 406.8 ± 39.0 s⁻¹
- Percentage conversion [2]: 85.1 ± 2.4%

Compound: CC(=O)N[C@H]1[C@H]([C@H](O)[C@H](O)CO)OC(C(=O)O)=C[C@@H]1O [compound 6, 2,3-dehydro-2-deoxy-N-acetylneuraminic acid]
- inhibitory activity against PmST1 (in words) [3]: not effective inhibitors
- inhibitory activity against CpNanH (in words) [4]: not effective inhibitors
- inhibition at 100 µM ([5]; read-out: inhibition against BiNanH2): > 50%
- inhibition at 100 µM ([6]; read-out: inhibition against AuSialidase): > 50%
- inhibition at 100 µM ([7]; read-out: inhibition against VcSialidase): > 50%
- inhibitory activity against SpNanB (in words) [8]: not effective inhibitors
- inhibitory activity against SpNanC (in words) [9]: not effective inhibitors
- inhibition at 100 µM ([10]; read-out: inhibition against SpNanA): > 50%
- inhibition against CpNanI [11]: more than 50%

Compound: CC(=O)N[C@@H]1C(O)C=C(C(=O)O)OC1C[C@H](O)CO (some centres unmarked) [compound 10, Neu5Ac7deoxy2en]
- inhibitory activity against PmST1 (in words) [3]: not effective inhibitors
- inhibitory activity against CpNanH (in words) [4]: not effective inhibitors
- inhibitory activity against BiNanH2 (in words) [5]: not an effective inhibitor
- inhibitory activity against AuSialidase (in words) [6]: selective inhibitory activity
- IC50 ([6]; read-out: IC50 against AuSialidase, Neu5Acα2–3GalβpNP as substrate): 17 ± 1 µM
- inhibitory activity against hNEU2 (in words) [12]: but not hNEU2
- inhibitory activity against VcSialidase (in words) [7]: not an effective inhibitor
- inhibitory activity against SpNanB (in words) [8]: not effective inhibitors
- inhibitory activity against SpNanC (in words) [9]: not effective inhibitors
- inhibitory activity against SpNanA (in words) [10]: selective inhibitory activity
- IC50 [10]: 10.7 ± 0.4 µM
- inhibitory activity against CpNanI (in words) [11]: selective inhibitory activity

Compound: CCCCC(=O)NC[C@@H](O)[C@@H](O)[C@@H]1OC(C(=O)O)=C[C@H](O)[C@H]1NC(C)=O [compound 12, Neu5Ac9NPent2en]
- inhibitory activity against PmST1 (in words) [3]: not effective inhibitors
- inhibitory activity against CpNanH (in words) [4]: not effective inhibitors
- IC50 [5]: 34 ± 2 µM
- inhibitory activity against AuSialidase (in words) [6]: lowered the inhibitory activity
- inhibitory activity against hNEU2 (in words) [12]: lowered the inhibitory activity
- inhibitory activity against VcSialidase (in words) [7]: lowered the inhibitory activity
- inhibitory activity against SpNanB (in words) [8]: not effective inhibitors
- inhibitory activity against SpNanC (in words) [9]: not effective inhibitors
- IC50 [10]: 10.5 ± 0.5 µM
- selectivity against human NEU1 [13]: improved selectivity

Compound: CC(=O)N[C@H]1[C@H]([C@H](O)[C@H](O)CNC(=O)C2CC2)OC(C(=O)O)=C[C@@H]1O [compound 13, Neu5Ac9NCyclopro2en]
- inhibitory activity against PmST1 (in words) [3]: not effective inhibitors
- selectivity against viral sialidases [14]: higher selectivity
- inhibitory activity against CpNanH (in words) [4]: not effective inhibitors
- IC50 [5]: 29 ± 2 µM
- inhibitory activity against AuSialidase (in words) [6]: lowered the inhibitory activity
- inhibitory activity against hNEU2 (in words) [12]: lowered the inhibitory activity
- inhibitory activity against VcSialidase (in words) [7]: lowered the inhibitory activity
- inhibitory activity against SpNanB (in words) [8]: not effective inhibitors
- inhibitory activity against SpNanC (in words) [9]: not effective inhibitors
- IC50 [10]: 6.8 ± 0.2 µM

Compound: O=C(Cc1ccccc1)N[C@H]1[C@H]([C@H](O)[C@H](O)CO)OC(C(=O)O)=C[C@@H]1O [compound 15, Neu5PhAc2en]
- inhibitory activity against PmST1 (in words) [3]: not effective inhibitors
- inhibitory activity against CpNanH (in words) [4]: not effective inhibitors
- inhibitory activity against BiNanH2 (in words) [5]: not any bacterial sialidases tested
- inhibitory activity against AuSialidase (in words) [6]: not any bacterial sialidases tested
- inhibitory activity against hNEU2 (in words) [12]: retained inhibitory activity
- inhibitory activity against VcSialidase (in words) [7]: not any bacterial sialidases tested
- inhibitory activity against SpNanB (in words) [8]: not effective inhibitors
- inhibitory activity against SpNanC (in words) [9]: not effective inhibitors
- inhibitory activity against SpNanA (in words) [10]: not any bacterial sialidases tested
- inhibitory activity against CpNanI (in words) [11]: not any bacterial sialidases tested

Compound: CC(=O)N[C@H]1[C@H]([C@H](O)[C@H](O)CO)O[C@@](O[C@H]2[C@@H](O)[C@@H](CO)O[C@@H](O[C@H]3[C@H](O)[C@@H](O)C(O)O[C@@H]3CO)[C@@H]2O)(C(=O)O)C[C@@H]1O (stereo partly drawn) [α2–3-sialyllactose]
- Km [15]: 1.08 ± 0.35 mM
- kcat [15]: 0.313 ± 0.052 s⁻¹
